Assay results as given in ChEMBL document CHEMBL1909046, “DrugMatrix in vitro pharmacology data”.

Columns and labels:
[1] = biological target: Mitogen-activated protein kinase 1 (Homo sapiens, UniProt P28482); assay: DRUGMATRIX: Protein Serine/Threonine Kinase, ERK2 enzyme inhibition (substrate: Myelin Basic Protein); set-up: species or system Escherichia coli; conditions: Not Active = under 50% inhibition at 10 µM
[2] = biological target: Delta-type opioid receptor (Homo sapiens, UniProt P41143); type: cell membranes, HEK293, Membrane; further: in other assays of this panel Not Active means under 50% inhibition at 10 µM
Sequence of Delta-type opioid receptor (P41143 whole entry): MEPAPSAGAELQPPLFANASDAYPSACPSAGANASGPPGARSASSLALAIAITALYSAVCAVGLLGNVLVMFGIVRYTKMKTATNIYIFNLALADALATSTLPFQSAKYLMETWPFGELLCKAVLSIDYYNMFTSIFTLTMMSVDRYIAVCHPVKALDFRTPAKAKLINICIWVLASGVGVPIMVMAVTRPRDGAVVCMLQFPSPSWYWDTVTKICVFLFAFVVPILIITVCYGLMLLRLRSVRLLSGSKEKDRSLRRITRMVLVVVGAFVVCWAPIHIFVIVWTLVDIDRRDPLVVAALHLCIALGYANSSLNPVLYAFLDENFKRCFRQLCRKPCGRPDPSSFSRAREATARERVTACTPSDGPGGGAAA

[3] = DRUGMATRIX: Interleukin IL-1 radioligand binding (ligand: [125I] interleukin 1beta); type: cell membranes, Membrane; conditions: nih3t3; Not Active = under 50% inhibition at 10 µM
[4] = biological target: T1, Cysteinyl leukotriene receptor 1 (Homo sapiens, UniProt Q9Y271); type: cell membranes, CHO-K1, Membrane; further: in other assays of this panel Not Active means under 50% inhibition at 10 µM
T1 sequence (Q9Y271 whole entry): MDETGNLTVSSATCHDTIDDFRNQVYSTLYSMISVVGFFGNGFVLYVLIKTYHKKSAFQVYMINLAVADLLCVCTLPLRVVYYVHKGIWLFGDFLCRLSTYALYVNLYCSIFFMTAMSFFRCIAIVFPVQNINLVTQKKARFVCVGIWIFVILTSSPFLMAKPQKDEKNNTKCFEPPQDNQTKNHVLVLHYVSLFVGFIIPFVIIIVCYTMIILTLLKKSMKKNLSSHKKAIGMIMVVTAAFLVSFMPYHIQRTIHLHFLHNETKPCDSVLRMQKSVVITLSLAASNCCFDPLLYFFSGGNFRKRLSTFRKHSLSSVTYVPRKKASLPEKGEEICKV

Substance-P receptor = Substance-P receptor (Homo sapiens, UniProt P25103); type: cell membranes, CHO, Membrane; further: in other assays of this panel Not Active means under 50% inhibition at 10 µM
Sequence of Substance-P receptor (P25103 whole entry): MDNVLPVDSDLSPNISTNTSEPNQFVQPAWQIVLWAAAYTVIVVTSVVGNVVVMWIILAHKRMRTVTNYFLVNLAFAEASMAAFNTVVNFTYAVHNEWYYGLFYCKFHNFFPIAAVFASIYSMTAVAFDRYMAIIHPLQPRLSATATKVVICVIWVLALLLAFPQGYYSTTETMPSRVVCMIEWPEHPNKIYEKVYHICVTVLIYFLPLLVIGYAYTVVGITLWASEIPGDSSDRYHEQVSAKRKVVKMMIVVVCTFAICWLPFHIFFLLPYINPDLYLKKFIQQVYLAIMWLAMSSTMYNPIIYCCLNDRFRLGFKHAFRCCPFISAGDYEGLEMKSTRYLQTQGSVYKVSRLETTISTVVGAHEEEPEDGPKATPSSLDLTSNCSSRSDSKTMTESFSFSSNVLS

Sequence of Mitogen-activated protein kinase 1 (P28482 whole entry): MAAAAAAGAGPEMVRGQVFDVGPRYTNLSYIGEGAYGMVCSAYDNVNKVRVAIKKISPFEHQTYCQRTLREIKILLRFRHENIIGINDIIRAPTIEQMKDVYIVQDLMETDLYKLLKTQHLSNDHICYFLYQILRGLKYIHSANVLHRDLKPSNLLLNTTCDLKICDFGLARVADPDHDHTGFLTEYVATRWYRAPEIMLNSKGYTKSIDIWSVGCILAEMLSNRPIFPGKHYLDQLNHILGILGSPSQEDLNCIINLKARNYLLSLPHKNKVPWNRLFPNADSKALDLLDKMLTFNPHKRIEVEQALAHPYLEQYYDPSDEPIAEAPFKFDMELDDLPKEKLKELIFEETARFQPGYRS

Compound | IC50 [1] | IC50 ([2]; hek293) | IC50 [3] | Ki [3] | IC50 ([4]; cho-k1) | IC50 (Substance-P receptor; cho) | further results
COc1nc(C)nc(Cl)c1NC1=NCCN1 [MOXONIDINE] | Not Active | Not Active | Not Active | Not Active | Not Active | Not Active | –
N[C@@H](Cc1ccc(O)c(O)c1)C(=O)O [LEVODOPA] | Not Active | Not Active | Not Active | Not Active | Not Active | Not Active | –
OCCN(CCO)c1nc(N2CCCCC2)c2nc(N(CCO)CCO)nc(N3CCCCC3)c2n1 [DIPYRIDAMOLE] | Not Active | Not Active | Not Active | Not Active | Not Active | Not Active | –
Cn1ccnc1S [METHIMAZOLE] | Not Active | Not Active | Not Active | Not Active | Not Active | Not Active | –
CC(=O)[C@@]1(O)CC[C@H]2[C@@H]3C[C@H](C)C4=CC(=O)CC[C@]4(C)[C@H]3CC[C@@]21C | Not Active | Not Active | Not Active | Not Active | Not Active | Not Active | –
C=CCC1(C(C)CCC)C(=O)NC(=O)NC1=O (stereo unspecified) [SECOBARBITAL] | Not Active | Not Active | Not Active | Not Active | Not Active | Not Active | –
C[C@@H]1CN(c2c(F)c(N)c3c(=O)c(C(=O)O)cn(C4CC4)c3c2F)C[C@H](C)N1 [SPARFLOXACIN] | Not Active | Not Active | Not Active | Not Active | Not Active | Not Active | –
O=c1ncn2nc(Sc3ccc(F)cc3F)ccc2c1-c1c(Cl)cccc1Cl [NEFLAMAPIMOD] | Not Active | Not Active | Not Active | Not Active | Not Active | Not Active | –
Nc1c2c(nc3ccccc13)CCCC2 [TACRINE] | Not Active | Not Active | Not Active | Not Active | Not Active | Not Active | –
CO[C@H]1/C=C/O[C@@]2(C)Oc3c(C)c(O)c4c(O)c(c(/C=N/N5CCN(C)CC5)c(O)c4c3C2=O)NC(=O)/C(C)=C\C=C\[C@H](C)[C@H](O)[C@@H](C)[C@@H](O)[C@@H](C)[C@H](OC(C)=O)[C@@H]1C [RIFAMPIN] | Not Active | Not Active | Not Active | Not Active | Not Active | Not Active | –
CCCCc1oc2ccccc2c1C(=O)c1cc(I)c(OCCN(CC)CC)c(I)c1 [AMIODARONE] | Not Active | – | – | – | Not Active | Not Active | –
CCOC(=O)N1CCC(=C2c3ccc(Cl)cc3CCc3cccnc32)CC1 [LORATADINE] | Not Active | Not Active | Not Active | Not Active | Not Active | Not Active | –
N[C@@H](Cc1ccc(N(CCCl)CCCl)cc1)C(=O)O | Not Active | Not Active | Not Active | Not Active | Not Active | Not Active | –
Cc1noc(NS(=O)(=O)c2ccc(N)cc2)c1C [SULFISOXAZOLE] | Not Active | Not Active | Not Active | Not Active | Not Active | Not Active | –
N[C@@H](Cc1cc(I)c(Oc2ccc(O)c(I)c2)c(I)c1)C(=O)O [LIOTHYRONINE] | Not Active | Not Active | – | – | Not Active | Not Active | –
c1ccc([C@H]2CN3CCSC3=N2)cc1 [LEVAMISOLE] | Not Active | Not Active | Not Active | Not Active | Not Active | Not Active | –
CC1(C)O[C@@H]2C[C@H]3[C@@H]4CCC5=CC(=O)C=C[C@]5(C)[C@@]4(F)[C@@H](O)C[C@]3(C)[C@]2(C(=O)CO)O1 [TRIAMCINOLONE ACETONIDE] | Not Active | Not Active | Not Active | Not Active | Not Active | Not Active | –
N#CC(C#N)=Cc1ccc(O)c(O)c1 [TYRPHOSTIN 23] | Not Active | Not Active | Not Active | Not Active | Not Active | Not Active | –
Nc1nc2nc[nH]c2c(=S)[nH]1 [THIOGUANINE] | Not Active | Not Active | Not Active | Not Active | Not Active | Not Active | –

Compound | IC50 [1] | IC50 ([2]; hek293) | IC50 [3] | Ki [3] | IC50 ([4]; cho-k1) | IC50 (Substance-P receptor; cho) | further results
NS(=O)(=O)c1cc2c(cc1Cl)NC(C(Cl)Cl)NS2(=O)=O (stereo unspecified) [TRICHLORMETHIAZIDE] | Not Active | Not Active | Not Active | Not Active | Not Active | Not Active | –
CC(C)N1CCN(c2ccc(OCC3COC(Cn4cncn4)(c4ccc(Cl)cc4Cl)O3)cc2)CC1 (stereo unspecified) [TERCONAZOLE] | Not Active | Not Active | – | – | Not Active | Not Active | –
CN1CCN(CCCN2c3ccccc3Sc3ccc(Cl)cc32)CC1 [PROCHLORPERAZINE] | Not Active | Not Active | – | – | Not Active | Not Active | –
CC(C)(C)NC(=O)[C@@H]1C[C@@H]2CCCC[C@@H]2CN1C[C@@H](O)[C@H](Cc1ccccc1)NC(=O)[C@H](CC(N)=O)NC(=O)c1ccc2ccccc2n1 | Not Active | – | Not Active | Not Active | Not Active | Not Active | –
SODIUM NITROPRUSSIDE | Not Active | Not Active | Not Active | Not Active | Not Active | Not Active | Ki [1]: Not Active; Ki ([2]; hek293): Not Active; Ki ([4]; cho-k1): Not Active; Ki (Substance-P receptor; cho): Not Active
NC[C@H]1CC[C@H](C(=O)O)CC1 [TRANEXAMIC ACID] | Not Active | Not Active | Not Active | Not Active | Not Active | Not Active | –
CC/C(=C(\c1ccccc1)c1ccc(OCCN(C)C)cc1)c1ccccc1 [TAMOXIFEN] | Not Active | – | – | – | Not Active | – | IC50 ([2]; read-out: IC50): 13.3 µM; Ki ([2]; read-out: Ki): 4.7 µM; IC50 (Substance-P receptor; read-out: IC50): 15.7 µM; Ki (Substance-P receptor; read-out: Ki): 8.54 µM
N[C@@H]1[C@H]2CN(c3nc4c(cc3F)c(=O)c(C(=O)O)cn4-c3ccc(F)cc3F)C[C@@H]12 [TROVAFLOXACIN] | Not Active | Not Active | Not Active | Not Active | Not Active | Not Active | –
CC[C@@H](CO)NC(=O)[C@@H]1C=C2c3cccc4[nH]cc(c34)C[C@H]2N(C)C1 [METHYLERGONOVINE] | Not Active | Not Active | Not Active | Not Active | Not Active | Not Active | –
Cc1cccc(N(C)C(=S)Oc2ccc3ccccc3c2)c1 [TOLNAFTATE] | Not Active | Not Active | Not Active | Not Active | Not Active | Not Active | –
Cc1oncc1C(=O)Nc1ccc(C(F)(F)F)cc1 [LEFLUNOMIDE] | Not Active | Not Active | Not Active | Not Active | Not Active | Not Active | –
Nc1nc2ccc(OC(F)(F)F)cc2s1 [RILUZOLE] | Not Active | Not Active | Not Active | Not Active | Not Active | Not Active | –
Cc1c(C)c2c(c(C)c1O)CCC(C)(COc1ccc(CC3SC(=O)NC3=O)cc1)O2 (stereo unspecified) [TROGLITAZONE] | – | Not Active | Not Active | Not Active | Not Active | Not Active | IC50 ([1]; read-out: IC50): 1.24 µM
Cc1nc2n(c(=O)c1CCN1CCC(c3noc4cc(F)ccc34)CC1)CCCC2 [RISPERIDONE] | Not Active | Not Active | – | – | Not Active | Not Active | –
CCCOc1ccccc1-c1nc2nn[nH]c2c(=O)[nH]1 [ZAPRINAST] | Not Active | Not Active | Not Active | Not Active | Not Active | Not Active | –
CC[C@]1(O)C[C@H]2CN(CCc3c([nH]c4ccccc34)[C@@](C(=O)OC)(c3cc4c(cc3OC)N(C=O)[C@H]3[C@@](O)(C(=O)OC)[C@H](OC(C)=O)[C@]5(CC)C=CCN6CC[C@]43[C@@H]65)C2)C1 [VINCRISTINE] | Not Active | Not Active | Not Active | Not Active | Not Active | Not Active | –
COc1c(C)c2c(c(O)c1C/C=C(\C)CCC(=O)O)C(=O)OC2 [MYCOPHENOLIC ACID] | Not Active | Not Active | Not Active | Not Active | Not Active | Not Active | –
CSc1ccc(/C=C2/C(C)=C(CC(=O)O)c3cc(F)ccc32)cc1 [SULINDAC SULFIDE] | – | Not Active | Not Active | Not Active | – | Not Active | IC50 ([1]; read-out: IC50): 1.09 µM; IC50 ([4]; read-out: IC50): 29.4 µM; Ki ([4]; read-out: Ki): 14.7 µM
O=NN(CCCl)C(=O)NC1CCCCC1 [LOMUSTINE] | Not Active | Not Active | Not Active | Not Active | Not Active | Not Active | –
